Active and inactive are the calls of the source. The rule behind the calls is not given here.

Assay [1] concerns Escherichia coli. As to the kind of experiment: Inhibition of Escherichia coli DnaB helicase at 12 uM.
Assay [2] has as its system Escherichia coli. As to the kind of experiment: Inhibition of Escherichia coli DnaB helicase at 60 uM.
The nature of assay [3]: Inhibition of Escherichia coli DnaB helicase in presence of 1 mM ATP.
Assay [4] deals with Escherichia coli. As to the kind of experiment: Inhibition of Escherichia coli DnaB helicase at 30 uM.
Assay [5] relates to Escherichia coli. As to the kind of experiment: Inhibition of Escherichia coli DnaB helicase-stimulated primer synthesis.
A short description of assay [6]: Inhibition of Escherichia coli DnaB helicase in presence of 150 uM ATP.
Assay [7] has as its system Escherichia coli. Kind of assay: Inhibition of Escherichia coli DnaB helicase at 6 uM.

For `O=c1c(O)c(-c2cc(O)c(O)c(O)c2)oc2cc(O)cc(O)c12` [MYRICETIN], the Km (as a rule, the concentration of substrate that gives half-maximal velocity) in assay [1] stood at 2.9 µM; in assay [2], 4.5 µM; in assay [4], 2.3 µM; in assay [7], 17 µM. Moreover, the Vmax – broadly, the rate approached at saturating substrate – in assay [1] was found to be 1.06 µM/s; in assay [2] it was 0.35 µM/s; in assay [4], 0.61 µM/s; in assay [7], 1.64 µM/s. Also, the IC50 (as a rule, the concentration that inhibits the measured activity by half) in assay [3] came to 11.3 µM; in assay [6] it was 10.2 µM. Also, in assay [5], the outcome was Active.

(Values after ChEMBL document CHEMBL1140476 (Bioorg Med Chem, 2007).)
